How the values were obtained:
Type in all cases: cell-based
miR-124 = assay: Regulation of miR-124 expression in a PBMC in vitro model (qPCR); details: 5 μM test compound, 24 h, human PBMC stimulated with PHA-L and IL-2; miR-191 internal reference; read-out: Relative expression of miR-124, fold change compared with DMSO-treated cells
Description: Pharmacological Activity Test: Regulation of miR-124 Expression by the Quinoline Derivatives in a PBMC In Vitro Model
• a. human PBMC cells • b. PHA-L • c. IL-2 • d. mirVana™ miRNA Extraction kit • e. TaqMan Advanced miRNA cDNA Synthesis Kit • f. TaqMan Fast Gene Expression Master Mix • g. TaqMan Advanced miRNA Assay (mir191) • h. TaqMan Advanced miRNA Assay (mir124)
Human PBMC cells were resuscitated. The cell suspension was transferred to a 75 cm^2 culture flask containing 13 mL of culture medium. The cells were cultured overnight in a 37° C., 5% CO2 incubator. The cell suspension was then collected in a conical flask, centrifuged at 1200 rpm for 5 minutes, and the supernatant was discarded. The cells were resuspended in 1 mL of fresh culture medium, and then the cell clumps were gently blown apart and inoculated into a 6-well plate at a density of 4*10^6 cells/mL. 5 μg/mL PHA-L and 10 ng/mL IL-2 were added to each well. The cells were incubated in the incubator for 48 hours. 5 μM of the test compound was added to each well of a 6-well plate, and 0.1% DMSO was added to the blank control wells, and the plate was incubated at 37° C. for 24 h. Cells were collected, Total RNA was isolated and extracted according to the procedure of the mirVana™ miRNA Extraction Kit, and cDNA was prepared according to the procedure of the TaqMan Advanced miRNA cDNA Synthesis Kit. MiR-191 was used as the internal reference gene for qPCR test.
That is, RNA sample→poly (A) tailing reaction→adapter reaction→reverse transcription (RT) reaction→miR-amplification reaction→qPCR test.
The qPCR procedure includes: 50° C. 2 min; 95° C. 20 s; 95° C. 1 s, a 60° C. 20 s, 40 cycles.
The relative gene expression was calculated using the following formula: ΔCt=Ct (miR-124)−Ct (miR-191)
Relative miRNA expression=2^−ΔCt.

TNF-α = assay: Macrophage TNF-α secretion after LPS (ELISA); details: Bone marrow macrophage, compared to 0 μM, mouse bone marrow macrophages, 200 ng/ml LPS, 6 hours, read-out: Inhibition rate of TNFα at 10 μM concentration
Description: (§1) Pharmacological Activity Test: Regulatory Effect of Quinoline Derivatives on Macrophage IL-6 and TNF-α Secretion
(§2) Mouse bone marrow cells were isolated from the femur and tibia bone marrow of […] mice of 6-8 week old raised under SPF conditions and inoculated in 6-well plates at a density of 1.5*10^6 cells/well/2 mL. 50 ng/mL M-CSF was added to each well and the cells were cultured in a CO2 incubator for 3 days. On the third day, the culture medium was replaced with fresh medium containing 100 ng/mL M-CSF and the culture was continued for 3 days. On the 6th day, the supernatant was removed and the cells were washed once with DPBS. After adding 1 mL of DPBS, the macrophages were harvested using a cell scraper, centrifuged at 400 g for 10 min, and the supernatant was discarded. The cells were resuspended in fresh culture medium containing 50 ng/mL M-CSF, inoculated in a 96-well plate at a density of 2*10^4 cells/well/200 μL, and cultured in a CO2 incubator overnight. 0, 3, 5, […] of the test compound were added to each well (wherein well 0 contains 0.1% DMSO) respectively and incubate in a CO2 incubator for 1 hour. Then 200 ng/ml LPS was added and the cell supernatant was collected after 6 hours of co-culture. ELISA kits were used to detect the secretion levels of IL-6 and TNF-α.

IL-6 = assay: Macrophage IL-6 secretion after LPS (ELISA); details: Bone marrow macrophage, compared to 0 μM, mouse bone marrow macrophages, 200 ng/ml LPS, 6 hours, read-out: Inhibition rate of IL-6 at 10 μM concentration
Description: as §1, §2

| SMILES | fold induction at 5 µM (miR-124) | inhibition at 10 µM (TNF-α) [%] | inhibition at 10 µM (IL-6) [%] |
| --- | --- | --- | --- |
| FC(F)C1(c2ccc(Nc3ccc4cccc(Cl)c4n3)cc2)CC1 [Compound 1, 8-chloro-N-(4-(1-(difluoromethyl)cyclopropyl)phenyl)quinolin-2-amine] | 1.5 | 85 | 81 |
| FC(F)(F)C1(c2ccc(Nc3ccc4cccc(Cl)c4n3)nc2)CC1 [Compound 2, 8-chloro-N-(5-(1-(trifluoromethyl)cyclopropyl)pyridin-2-yl)quinolin-2-amine] | 8.35 |  |  |
| CC(C)(c1ccc(Nc2ccc3cccc(Cl)c3n2)cc1)C(F)(F)F [Compound 3, 8-chloro-N-(4-(1,1,1-trifluoro-2-methylprop-2-yl)phenyl)quinolin-2-amine] | 7.33 |  |  |
| FC(F)(F)C1(c2ccc(Nc3ccc4cccc(Cl)c4n3)cc2)CC1 [Compound 4, 8-chloro-N-(4-(1-(trifluoromethyl)cyclopropyl)phenyl)quinolin-2-amine] | 15.9 | 84 | 85 |
| FC(F)(F)C1(c2ccnc(Nc3ccc4cccc(Cl)c4n3)c2)CC1 [Compound 6, 8-chloro-N-(4-(1-(trifluoromethyl)cyclopropyl)pyridin-2-yl)quinolin-2-amine] | 7.28 |  |  |
| FC(F)(F)C1(c2ccc(Nc3ccc4cccc(Cl)c4n3)cn2)CC1 [Compound 7, 8-chloro-N-(6-(1-(trifluoromethyl)cyclopropyl)pyridine-3-yl)quinolin-2-amine] | 1.8 |  |  |
| COc1cc(C2(C(F)(F)F)CC2)ccc1Nc1ccc2cccc(Cl)c2n1 [Compound 8, 8-chloro-N-(2-methoxy-4-(1-(trifluoromethyl)cyclopropyl)phenyl)quinolin-2-amine] | 6 |  |  |
| FC(F)(F)C1(c2cccc(Nc3ccc4cccc(Cl)c4n3)c2)CC1 [Compound 9, 8-chloro-N-(3-(1-(trifluoromethyl)cyclopropyl)phenyl)quinolin-2-amine] | 4.24 |  |  |
| Fc1cc(Cl)c2nc(Nc3ccc(C4(C(F)(F)F)CC4)cn3)ccc2c1 [Compound 10, 8-chloro-6-fluoro-N-(5-(1-(trifluoromethyl)cyclopropyl)pyridin-2-yl)quinolin-2-amine] | 6.9 |  |  |
| Cc1cc(Nc2ccc3cccc(Cl)c3n2)ncc1C1(C(F)(F)F)CC1 [Compound 13, 8-chloro-N-(4-methyl-5-(1-(trifluoromethyl)cyclopropyl)pyridin-2-yl)quinolin-2-amine] | 5.9 |  |  |
| FC(F)(F)C1(c2cnc(Nc3ccc4cccc(Cl)c4n3)cn2)CC1 [Compound 14, 8-chloro-N-(5-(1-(trifluoromethyl)cyclopropyl)Pyrazin-2-yl)quinolin-2-amine] | 8.1 |  |  |
| Fc1cc(Nc2ccc3cccc(Cl)c3n2)ncc1C1(C(F)(F)F)CC1 [Compound 15, 8-chloro-N-(4-fluoro-5-(1-(trifluoromethyl)cyclopropyl)pyridin-2-yl)quinolin-2-amine] | 1.99 |  |  |
| Fc1cc(Cl)c2nc(Nc3cc(C4(C(F)(F)F)CC4)ccn3)ccc2c1 [Compound 17, 8-chloro-6-fluoro-N-(4-(1-(trifluoromethyl)cyclopropyl)pyridin-2-yl)quinolin-2-amine] | 56.4 |  |  |
| N#Cc1cc(Cl)c2nc(Nc3ccc(C4(C(F)(F)F)CC4)cn3)ccc2c1 [Compound 19, 8-chloro-2-((5-(1-(trifluoromethyl)cyclopropyl)pyridin-2-yl)amino)quinolin-6-nitrile] | 118 |  |  |
| N#Cc1cc(Cl)c2nc(Nc3ccc(C4(C(F)(F)F)CC4)cc3)ccc2c1 [Compound 20, 8-chloro-2-((4-(1-(trifluoromethyl)cyclopropyl)phenyl)amino)quinolin-6-carbonitrile] | 15.2 |  |  |
| CS(=O)(=O)c1cc(Cl)c2nc(Nc3ccc(C4(C(F)(F)F)CC4)cc3)ccc2c1 [Compound 21] | 21.2 |  |  |
| CC(C)(c1ccc(Nc2ccc3cccc(Cl)c3n2)cc1)C(F)F [Compound 22, 8-chloro-N-(4-(1,1-difluoro-2-methylpropan-2-yl)phenyl)quinolin-2-amine] | 1.96 |  |  |
| FC(F)(F)C1(c2cnc(Nc3ccc4cccc(Cl)c4n3)nc2)CC1 [Compound 24, 8-chloro-N-(5-(1-(trifluoromethyl)cyclopropyl)pyrimidin-2-yl)quinolin-2-amine] | 1.99 |  |  |

— patent publication US20260216180A1, “QUINOLINE DERIVATIVE COMPOUNDS OR PHARMACEUTICALLY ACCEPTABLE SALT THEREOF, PREPARATION METHOD THEREFOR AND USE THEREOF” (JIANGSU CAREPHAR PHARMACEUTICAL CO.,LTD., priority 2023, published 2026)
